Several values for one entry are separate records, joined by “and”; a condition that tells them apart may be missing. Equal entries are not always repeated.
What was measured:
[1] = tested on: Candida famata regulatory mutants unable to overproduce riboflavin; assay: Sensitivity to K2Cr2O7, Burkholder medium (Table 10); format: cell-based
Description: In the next experiments, the influence of cobalt and chromium ions on the growth and riboflavin synthesis of regulatory mutants having defects in derepression (derepression mutants) was studied.

C. famata = format: cell-based, Candida famata
[2] = tested on: Candida famata regulatory mutants able to overproduce riboflavin; assay: Sensitivity to Co^+2 ions, solid Burkholder medium (Table 16); format: cell-based; design: key: +++: strong growth; ++: weak growth; +: very weak growth; —: absence of growth
Procedure: (§1) The sensitivity of the regulatory mutants of the yeast C. famata which overproduce riboflavin in iron rich medium probably due to defects in genes regulating repression (repression mutants), to different ions of heavy metals was studied. For this, the analyzed strains were streaked on the YPD plates and then were replica-plated on Burkholder synthetic medium containing leucine (40 μg/ml). The C.famata mutants L20105-40-1-11, L20105-40-1-17, L20105-3-2-1, L20105-3-2-8 and L20105-3-2-12 (all contained leu2 marker) accumulated 80–100 μg riboflavin/ml. The mutants #75, 4-48, 2-5 produced much higher amounts of riboflavin (200–250 μg/ml) but were prototrophs for leucine synthesis. Strain #75 was characterized by retarded growth comparing with other mutants. The strains VKM Y-9 (wild type) and L20105 (leu2) were used as the control strains.

[3] = tested on: Candida famata regulatory mutants able to overproduce riboflavin; assay: Sensitivity to copper ions, solid Burkholder medium (Table 12); format: cell-based; design: key: +++: strong growth; ++: weak growth; —: absence of growth
Procedure: as §1
Mutants overproducing lower amounts of riboflavin appeared to be more sensitive to CuSO4 (0.15 mM) than that of the strains producing higher amounts of riboflavin (inhibitory concentration 0.5 mM) (Table 12).

Compound: [K+].[K+].[O]=[Cr](=[O])([O-])[O][Cr](=[O])(=[O])[O-] [K2Cr2O7]
- growth of wild-type strains VKM Y-9 and L20105 (leu2) ([1]; Cr^+6 0.15 mM): grow at this concentration quite satisfactory
- concentration toxic for the derepression mutants ([1]; Cr^+6 ions as K2Cr2O7): 0.15 mM

Compound: [Cl-].[Cl-].[Co+2] [CoCl2]
- concentration non-toxic for yeast growth that stimulates riboflavin synthesis (C. famata): 15 µg/mL
- higher concentrations tested that inhibited plate growth (C. famata): 50 µg/mL and 100 µg/mL
- maximal subinhibitory concentration which stimulates flavinogenesis (C. famata): 25 µg/mL
- growth ([2]; #2-5, Co^+2 3.75 μg/ml): +
- growth ([2]; #75, Co^+2 2.5 μg/ml): +
- growth ([2]; L20105-3-2-1, Co^+2 3.75 μg/ml): +
- growth ([2]; L20105-3-2-8, Co^+2 3.75 μg/ml): +
- growth ([2]; L20105-3-2-8, Co^+2 5.0 μg/ml): +
- growth ([2]; L20105-3-2-9, Co^+2 3.75 μg/ml): +
- growth ([2]; L20105-3-2-12, Co^+2 3.75 μg/ml): +
- growth ([2]; L20105-3-2-12, Co^+2 5.0 μg/ml): +
- growth ([2]; L20105-40-1-11, Co^+2 3.75 μg/ml): +

Compound: O=S(=O)([O-])[O-].[Cu+2] [CuSO4]
- growth ([3]; #2-5, Cu^+2 0.05 mM): +++
- growth ([3]; #2-5, Cu^+2 0.1 mM): +++
- growth ([3]; #2-5, Cu^+2 0.15 mM): +++
- growth ([3]; #2-5, Cu^+2 0.2 mM): +++
- growth ([3]; #2-5, Cu^+2 0.25 mM): +++
- growth ([3]; #2-5, Cu^+2 0.3 mM): ++
- growth ([3]; #2-5, Cu^+2 0.35 mM): ++
- growth ([3]; #2-5, Cu^+2 0.5 mM): —
- growth ([3]; #2-5, Cu^+2 0.55 mM): —
- growth ([3]; #2-5, Cu^+2 0.6 mM): —
- growth ([3]; #2-5, Cu^+2 0.65 mM): —
- growth ([3]; #2-5, Cu^+2 0.7 mM): —
- growth ([3]; #2-5, Cu^+2 0.75 mM): —
- growth ([3]; #2-5, Cu^+2 4 mM): ++
- growth ([3]; #2-5, Cu^+2 8 mM): —
- growth ([3]; #4-48, Cu^+2 0.05 mM): +++
- growth ([3]; #4-48, Cu^+2 0.1 mM): +++
- growth ([3]; #4-48, Cu^+2 0.15 mM): +++
- growth ([3]; #4-48, Cu^+2 0.2 mM): +++
- growth ([3]; #4-48, Cu^+2 0.25 mM): +++
- growth ([3]; #4-48, Cu^+2 0.3 mM): ++
- growth ([3]; #4-48, Cu^+2 0.35 mM): ++
- growth ([3]; #4-48, Cu^+2 0.5 mM): —
- growth ([3]; #4-48, Cu^+2 0.55 mM): —
- growth ([3]; #4-48, Cu^+2 0.6 mM): —
- growth ([3]; #4-48, Cu^+2 0.65 mM): —
- growth ([3]; #4-48, Cu^+2 0.7 mM): —
- growth ([3]; #4-48, Cu^+2 0.75 mM): —
- growth ([3]; #4-48, Cu^+2 4 mM): ++
- growth ([3]; #4-48, Cu^+2 8 mM): —
- growth ([3]; #75, Cu^+2 0.05 mM): +++
- growth ([3]; #75, Cu^+2 0.1 mM): +++
- growth ([3]; #75, Cu^+2 0.15 mM): +++
- growth ([3]; #75, Cu^+2 0.2 mM): +++
- growth ([3]; #75, Cu^+2 0.25 mM): +++
- growth ([3]; #75, Cu^+2 0.3 mM): ++
- growth ([3]; #75, Cu^+2 0.35 mM): ++
- growth ([3]; #75, Cu^+2 0.5 mM): —
- growth ([3]; #75, Cu^+2 0.55 mM): —
- growth ([3]; #75, Cu^+2 0.6 mM): —
- growth ([3]; #75, Cu^+2 0.65 mM): —
- growth ([3]; #75, Cu^+2 0.7 mM): —
- growth ([3]; #75, Cu^+2 0.75 mM): —
- growth ([3]; #75, Cu^+2 4 mM): ++
- growth ([3]; #75, Cu^+2 8 mM): —
- growth ([3]; L20105 (leu2), Cu^+2 0.45 mM): ++
- growth ([3]; L20105 (leu2), Cu^+2 0.5 mM): ++
- growth ([3]; L20105 (leu2), Cu^+2 0.55 mM): ++
- growth ([3]; L20105-3-2-4, Cu^+2 0.15 mM): —
- growth ([3]; L20105-3-2-4, Cu^+2 0.2 mM): —
- growth ([3]; L20105-3-2-4, Cu^+2 0.25 mM): —
- growth ([3]; L20105-3-2-4, Cu^+2 0.35 mM): —
- growth ([3]; L20105-3-2-4, Cu^+2 0.45 mM): —
- growth ([3]; L20105-3-2-4, Cu^+2 0.5 mM): —
- growth ([3]; L20105-3-2-4, Cu^+2 0.55 mM): —
- growth ([3]; L20105-3-2-4, Cu^+2 0.6 mM): —
- growth ([3]; L20105-3-2-4, Cu^+2 0.65 mM): —
- growth ([3]; L20105-3-2-4, Cu^+2 0.7 mM): —
- growth ([3]; L20105-3-2-4, Cu^+2 0.75 mM): —
- growth ([3]; L20105-3-2-4, Cu^+2 4 mM): —
- growth ([3]; L20105-3-2-8, Cu^+2 0.05 mM): ++
- growth ([3]; L20105-3-2-8, Cu^+2 0.15 mM): —
- growth ([3]; L20105-3-2-8, Cu^+2 0.2 mM): —
- growth ([3]; L20105-3-2-8, Cu^+2 0.25 mM): —
- growth ([3]; L20105-3-2-8, Cu^+2 0.3 mM): —
- growth ([3]; L20105-3-2-8, Cu^+2 0.35 mM): —
- growth ([3]; L20105-3-2-8, Cu^+2 0.45 mM): —
- growth ([3]; L20105-3-2-8, Cu^+2 0.5 mM): —
- growth ([3]; L20105-3-2-8, Cu^+2 0.55 mM): —
- growth ([3]; L20105-3-2-8, Cu^+2 0.6 mM): —
- growth ([3]; L20105-3-2-8, Cu^+2 0.65 mM): —
- growth ([3]; L20105-3-2-8, Cu^+2 0.7 mM): —
- growth ([3]; L20105-3-2-8, Cu^+2 0.75 mM): —
- growth ([3]; L20105-3-2-8, Cu^+2 4 mM): —
- growth ([3]; L20105-3-2-8, Cu^+2 8 mM): —
- growth ([3]; L20105-3-2-12, Cu^+2 0.05 mM): ++
- growth ([3]; L20105-3-2-12, Cu^+2 0.15 mM): —
- growth ([3]; L20105-3-2-12, Cu^+2 0.2 mM): —
- growth ([3]; L20105-3-2-12, Cu^+2 0.25 mM): —
- growth ([3]; L20105-3-2-12, Cu^+2 0.3 mM): —
- growth ([3]; L20105-3-2-12, Cu^+2 0.35 mM): —
- growth ([3]; L20105-3-2-12, Cu^+2 0.45 mM): —
- growth ([3]; L20105-3-2-12, Cu^+2 0.5 mM): —
- growth ([3]; L20105-3-2-12, Cu^+2 0.55 mM): —
- growth ([3]; L20105-3-2-12, Cu^+2 0.6 mM): —
- growth ([3]; L20105-3-2-12, Cu^+2 0.65 mM): —
- growth ([3]; L20105-3-2-12, Cu^+2 0.7 mM): —
- growth ([3]; L20105-3-2-12, Cu^+2 0.75 mM): —
- growth ([3]; L20105-3-2-12, Cu^+2 4 mM): —
- growth ([3]; L20105-3-2-12, Cu^+2 8 mM): —

From patent US7009045B2 (priority 2000, dated 2006)
